Test results: the supplement of paper PMC8617591

Experiments:
[1] = tested on: Mycobacterium tuberculosis Erdman (autoluminescent); experiment: AUC25, normalised area under dose response up to IC25 (three-drug combination) (fraction (0-1)); higher = more potent at low dose
Protocol: (§1)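 DiaMOND equipotent three-drug combination dose responses (10 doses, 1.5- or 2-fold spacing, centred on IC90) against autoluminescent M. tuberculosis Erdman in 8 in vitro models. Read-out is OD600, or luminescence for the intracellular and dormancy models, normalised to untreated wells. Hill-fit Einf, AUC25 and GRinf are potency metrics; FIC50 and FIC90 are total Loewe fractional inhibitory concentrations as log2 (negative = synergy).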

[2] = tested on: Mycobacterium tuberculosis Erdman (autoluminescent); experiment: total FIC50 (Loewe) at 50% inhibition, three-drug combination (log2); higher = more antagonistic
Protocol: as §1

[3] = tested on: Mycobacterium tuberculosis Erdman (autoluminescent); experiment: GRinf, maximum normalised growth rate inhibition (three-drug combination) (unitless (-1 to 1)); higher = less effect (negative = killing)
Protocol: as §1

[4] = tested on: Mycobacterium tuberculosis Erdman (autoluminescent); experiment: total FIC90 (Loewe) at 90% inhibition, three-drug combination (log2); higher = more antagonistic
Protocol: as §1

[5] = tested on: Mycobacterium tuberculosis Erdman (autoluminescent); experiment: Einf, fitted maximum growth inhibition of three-drug combination (fraction); higher = stronger maximal inhibition
Protocol: as §1

CC(C)/N=c1\cc2n(-c3ccc(Cl)cc3)c3ccccc3nc-2cc1Nc1ccc(Cl)cc1 [clofazimine] + COc1c(N2C[C@@H]3CCCN[C@@H]3C2)c(F)cc2c(=O)c(C(=O)O)cn(C3CC3)c12 [moxifloxacin] + O=[N+]([O-])c1cn2c(n1)OC[C@@H](OCc1ccc(OC(F)(F)F)cc1)C2 [pretomanid]
Settings	AUC25, [1]	Einf, [5]	GRinf, [3]	total FIC50, [2]	total FIC90, [4]
in vitro model: acidic pH 5.7, time point: constant (~7 days, model-specific)	0.111	0.66	-0.331	0.779	–
in vitro model: acidic pH 5.7, time point: terminal (~4-5 doublings, model-specific)	0.0647	0.93	-0.186	0.34	0.287
in vitro model: intracellular J774, time point: constant = terminal	–	0.981	-0.328	–	-0.136

Settings	AUC25, [1]	Einf, [5]	GRinf, [3]	total FIC50, [2]	total FIC90, [4]
in vitro model: butyrate, time point: constant (~7 days, model-specific)	0.114	0.945	-0.41	0.567	2.06
in vitro model: butyrate, time point: terminal (~4-5 doublings, model-specific)	0.101	0.989	-0.286	0.561	1.3
in vitro model: cholesterol 0.05 mM, time point: constant (~7 days, model-specific)	0.112	0.707	-0.152	0.31	–
in vitro model: cholesterol 0.05 mM, time point: terminal (~4-5 doublings, model-specific)	0.104	0.908	-0.0989	0.933	0.0471
in vitro model: cholesterol-high 0.2 mM, time point: constant (~7 days, model-specific)	0.108	0.921	-0.386	0.526	2.16
in vitro model: cholesterol-high 0.2 mM, time point: terminal (~4-5 doublings, model-specific)	0.111	1	-0.905	0.181	0.651
in vitro model: dormancy (butyrate + nitrate, low O2), time point: constant (~7 days, model-specific)	0.096	0.958	0.184	0.193	-0.0601
in vitro model: dormancy (butyrate + nitrate, low O2), time point: terminal (~4-5 doublings, model-specific)	0.0701	0.981	-0.138	0.461	0.601
in vitro model: standard 7H9 glycerol, time point: constant = terminal	0.112	0.974	-0.306	-0.121	0.463
in vitro model: valerate, time point: constant (~7 days, model-specific)	0.117	0.881	-0.0836	0.973	–
in vitro model: valerate, time point: terminal (~4-5 doublings, model-specific)	0.0939	0.934	-0.0367	0.371	-0.0804

CC(C)/N=c1\cc2n(-c3ccc(Cl)cc3)c3ccccc3nc-2cc1Nc1ccc(Cl)cc1 [clofazimine] + NC(=O)c1cnccn1 [pyrazinamide] + CO[C@H]1/C=C/O[C@@]2(C)Oc3c(C)c(O)c4c(O)c(c(/C=N/N5CCN(C6CCCC6)CC5)c(O)c4c3C2=O)NC(=O)/C(C)=C\C=C\[C@H](C)[C@H](O)[C@@H](C)[C@@H](O)[C@@H](C)[C@H](OC(C)=O)[C@@H]1C [rifapentine]
Settings	AUC25, [1]	Einf, [5]	GRinf, [3]	total FIC50, [2]	total FIC90, [4]
in vitro model: acidic pH 5.7, time point: constant (~7 days, model-specific)	0.0912	0.872	-0.0882	-0.248	–
in vitro model: acidic pH 5.7, time point: terminal (~4-5 doublings, model-specific)	0.0866	0.992	-0.166	-0.185	-0.282
in vitro model: intracellular J774, time point: constant = terminal	–	0.987	-0.31	–	-0.162

Settings	AUC25, [1]	Einf, [5]	GRinf, [3]	total FIC50, [2]	total FIC90, [4]
in vitro model: butyrate, time point: constant (~7 days, model-specific)	0.112	0.934	-0.137	0.135	0.657
in vitro model: butyrate, time point: terminal (~4-5 doublings, model-specific)	0.0906	0.969	-0.0833	0.161	0.364
in vitro model: cholesterol 0.05 mM, time point: constant (~7 days, model-specific)	0.142	0.621	-0.201	–	–
in vitro model: cholesterol 0.05 mM, time point: terminal (~4-5 doublings, model-specific)	0.111	0.899	-0.27	0.876	–
in vitro model: cholesterol-high 0.2 mM, time point: constant (~7 days, model-specific)	0.121	0.905	-0.547	0.527	–
in vitro model: cholesterol-high 0.2 mM, time point: terminal (~4-5 doublings, model-specific)	0.0971	0.984	-0.634	0.828	0.832
in vitro model: dormancy (butyrate + nitrate, low O2), time point: constant (~7 days, model-specific)	0.0828	0.929	0.0852	-0.285	-1.22
in vitro model: dormancy (butyrate + nitrate, low O2), time point: terminal (~4-5 doublings, model-specific)	0.0573	0.993	-0.269	-0.0992	0.0246
in vitro model: standard 7H9 glycerol, time point: constant = terminal	0.115	0.936	-0.0744	-0.0271	–
in vitro model: valerate, time point: constant (~7 days, model-specific)	0.118	0.911	-0.101	0.0622	–
in vitro model: valerate, time point: terminal (~4-5 doublings, model-specific)	0.0526	0.901	0.0624	0.391	1.33

CC(C)/N=c1\cc2n(-c3ccc(Cl)cc3)c3ccccc3nc-2cc1Nc1ccc(Cl)cc1 [clofazimine] + NC(=O)c1cnccn1 [pyrazinamide] + CO[C@H]1/C=C/O[C@@]2(C)Oc3c(C)c(O)c4c(O)c(c(/C=N/N5CCN(C)CC5)c(O)c4c3C2=O)NC(=O)/C(C)=C\C=C\[C@H](C)[C@H](O)[C@@H](C)[C@@H](O)[C@@H](C)[C@H](OC(C)=O)[C@@H]1C [rifampicin]
Settings	AUC25, [1]	Einf, [5]	GRinf, [3]	total FIC50, [2]	total FIC90, [4]
in vitro model: acidic pH 5.7, time point: constant (~7 days, model-specific)	0.0832	0.905	-0.142	-0.249	–
in vitro model: acidic pH 5.7, time point: terminal (~4-5 doublings, model-specific)	0.0739	0.988	-0.217	-0.174	-0.451
in vitro model: intracellular J774, time point: constant = terminal	–	0.995	-0.387	–	-0.136

Settings	AUC25, [1]	Einf, [5]	GRinf, [3]	total FIC50, [2]	total FIC90, [4]
in vitro model: butyrate, time point: constant (~7 days, model-specific)	0.115	0.918	-0.091	0.234	0.505
in vitro model: butyrate, time point: terminal (~4-5 doublings, model-specific)	0.0935	0.967	-0.0615	0.0552	0.0714
in vitro model: cholesterol 0.05 mM, time point: constant (~7 days, model-specific)	0.122	0.657	-0.00769	–	–
in vitro model: cholesterol 0.05 mM, time point: terminal (~4-5 doublings, model-specific)	0.106	0.894	-0.15	1.2	–
in vitro model: cholesterol-high 0.2 mM, time point: constant (~7 days, model-specific)	0.113	0.864	-0.605	1.06	–
in vitro model: cholesterol-high 0.2 mM, time point: terminal (~4-5 doublings, model-specific)	0.107	1	-0.764	1.43	1.53
in vitro model: dormancy (butyrate + nitrate, low O2), time point: constant (~7 days, model-specific)	0.0887	0.949	0.12	-0.433	-1.62
in vitro model: dormancy (butyrate + nitrate, low O2), time point: terminal (~4-5 doublings, model-specific)	0.0801	0.994	-0.455	-0.413	0.318
in vitro model: standard 7H9 glycerol, time point: constant = terminal	0.114	0.935	0.0256	-0.361	–
in vitro model: valerate, time point: constant (~7 days, model-specific)	0.106	0.813	0.205	0.653	–
in vitro model: valerate, time point: terminal (~4-5 doublings, model-specific)	0.0497	0.896	0.165	0.53	1.88
